pEC50: −log10 of the molar value.
system: HIV-1 (IIIB) in MT-4 cells; test: microbe, parasite or virus in culture; assay type: cell-based; conditions: Human immunodeficiency virus 1, IIIB, MT4, MT-4 cells, HIV-1; read-out: MT4 EC50

**Q.** How did the pEC50 turn out when CC1(NC(=O)OC[C@H](c2ccc(Cl)c(-c3ncnn3C(F)F)c2)N2C(=N)N[C@](CC(C)(C)C(F)(F)F)(c3ccc(-c4cnn(C5CC5)n4)cc3)C2=O)CC1 [Compound 157] was run?
**A.** 8.12

**Q.** How did the pEC50 turn out when CC(C)(C[C@]1(c2ccc(-c3cnn(C4CC4)n3)cc2)NC(=N)N([C@H](COC(=O)NC2(C(F)(F)F)CC2)c2ccc(Cl)c(-c3ncnn3C3CC3)c2)C1=O)C(F)(F)F [Compound 159] was run?
**A.** 7.96

**Q.** With C[C@H](C(=O)NC[C@H](c1ccc(Cl)c(-c2ncnn2C(F)F)c1)N1C(=N)N[C@](CC(C)(C)C(F)(F)F)(c2ccc(-c3cnn(C4CC4)n3)cc2)C1=O)C(F)(F)F [Compound 161] as the molecule, how does the pEC50 read?
**A.** 7.85

**Q.** How did the pEC50 turn out when C[C@@H](C(=O)NC[C@H](c1ccc(Cl)c(-c2ncnn2C(F)F)c1)N1C(=N)N[C@](CC(C)(C)C(F)(F)F)(c2ccc(-c3cnn(C4CC4)n3)cc2)C1=O)C(F)(F)F [Compound 162] was run?
**A.** 7.68

**Q.** With CC(C)(C)C[C@]1(c2ccc(-c3cnn(C(F)F)c3)cc2)NC(=N)N([C@H](COC(=O)NC2(C)CC2)c2ccc(Cl)c(-n3ncnc3C(F)F)c2)C1=O [Compound 178] as the molecule, how does the pEC50 read?
**A.** 8.00

**Q.** CC(C)(C)C[C@]1(c2ccc(-c3cnn(C(F)F)c3)cc2)NC(=N)N([C@H](COC(=O)Nc2ccccn2)c2ccc(Cl)c(-n3ncnc3C(F)F)c2)C1=O [Compound 181] was tested. Which pEC50 did it give?
**A.** 7.54

**Q.** How did the pEC50 turn out when CC(C)(C)C[C@]1(c2ccc(-c3cnn(C(F)F)c3)cc2)NC(=N)N([C@H](COC(=O)NC(C)(C)C)c2ccc(Cl)c(-n3ncnc3C(F)F)c2)C1=O [Compound 183] was run?
**A.** 7.92

**Q.** How did the pEC50 turn out when CC(C)(C)C[C@]1(c2ccc(-c3cnn(C(F)F)c3)cc2)NC(=N)N([C@H](COC(=O)N2CC(F)(F)C2)c2ccc(Cl)c(-n3ncnc3C(F)F)c2)C1=O [Compound 184] was run?
**A.** 8.00

**Q.** How did the pEC50 turn out when CC(C)(C)C[C@]1(c2ccc(-c3cnn(C(F)F)c3)cc2)NC(=N)N([C@H](CO)c2ccc(Cl)c(-n3ncnc3C(F)F)c2)C1=O [Compound 186] was run?
**A.** 7.10

**Q.** CC(C)(C)C[C@]1(c2ccc(-c3ncccn3)cc2)NC(=N)N([C@H](COC(=O)NC2(C(F)(F)F)CC2)c2ccc(Cl)c(-n3ncnc3C(F)F)c2)C1=O [Compound 187] was tested. Which pEC50 did it give?
**A.** 7.94

**Q.** With CC(C)(C)C[C@]1(c2ccc(-c3ncccn3)cc2)NC(=N)N([C@H](COC(=O)NC(C)(C)C(F)F)c2ccc(Cl)c(-n3ncnc3C(F)F)c2)C1=O [Compound 188] as the molecule, how does the pEC50 read?
**A.** 8.00

**Q.** CC(C)(C)C[C@]1(c2ccc(-c3ncccn3)cc2)NC(=N)N([C@H](COC(=O)NC(C)(C)C(F)(F)F)c2ccc(Cl)c(-n3ncnc3C(F)F)c2)C1=O [Compound 189] was tested. Which pEC50 did it give?
**A.** 8.04

**Q.** With CC(C)(C)C[C@]1(c2ccc(-c3ccccn3)cc2)NC(=N)N([C@H](COC(=O)NC2(C(F)(F)F)CC2)c2ccc(Cl)c(-n3ncnc3C(F)F)c2)C1=O [Compound 190] as the molecule, how does the pEC50 read?
**A.** 7.65

**Q.** CC(C)(C)C[C@]1(c2ccc(-c3ccccn3)cc2)NC(=N)N([C@H](COC(=O)NC(C)(C)C)c2ccc(Cl)c(-n3ncnc3C(F)F)c2)C1=O [Compound 191] was tested. Which pEC50 did it give?
**A.** 8.01

**Q.** How did the pEC50 turn out when CC(C)(C)C[C@]1(c2ccc(-c3cnn(C(F)F)c3)cc2)NC(=N)N([C@H](COC(=O)NC2(C(F)(F)F)CC2)c2cc(F)c(Cl)c(-n3ncnc3C(F)F)c2)C1=O [Compound 192] was run?
**A.** 7.21

**Q.** CC(C)(C)C[C@]1(c2ccc(-c3ccccn3)cc2)NC(=N)N([C@H](COC(=O)NC2(C(F)(F)F)CC2)c2cc(F)c(Cl)c(-n3ncnc3C(F)F)c2)C1=O [Compound 193] was tested. Which pEC50 did it give?
**A.** 7.05

**Q.** How did the pEC50 turn out when CC(C)(C)C[C@]1(c2ccc(-c3ccccn3)cc2F)NC(=N)N([C@H](COC(=O)NC2(C(F)(F)F)CC2)c2ccc(Cl)c(-n3ncnc3C(F)F)c2)C1=O [Compound 196] was run?
**A.** 7.90

**Q.** How did the pEC50 turn out when CC(C)(C)C[C@]1(c2ccc(-c3ncccn3)cc2F)NC(=N)N([C@H](COC(=O)NC2(C(F)(F)F)CC2)c2ccc(Cl)c(-n3ncnc3C(F)F)c2)C1=O [Compound 197] was run?
**A.** 7.95

**Q.** With CC(C)(C)C[C@]1(c2ccc(-c3ncccn3)cc2F)NC(=N)N([C@H](COC(=O)NC(C)(C)C(F)(F)F)c2ccc(Cl)c(-n3ncnc3C(F)F)c2)C1=O [Compound 198] as the molecule, how does the pEC50 read?
**A.** 7.94

**Q.** With CC(C)(C)C[C@]1(c2ccc(-c3cncs3)cc2F)NC(=N)N([C@H](COC(=O)NC2(C(F)(F)F)CC2)c2ccc(Cl)c(-n3ncnc3C(F)F)c2)C1=O [Compound 199] as the molecule, how does the pEC50 read?
**A.** 8.12

**Q.** Cc1ncsc1-c1ccc([C@@]2(CC(C)(C)C)NC(=N)N([C@H](COC(=O)NC3(C(F)(F)F)CC3)c3ccc(Cl)c(-n4ncnc4C(F)F)c3)C2=O)c(F)c1 [Compound 200] was tested. Which pEC50 did it give?
**A.** 7.58

**Q.** Cn1nccc1-c1ccc([C@@]2(CC(C)(C)C)NC(=N)N([C@H](COC(=O)NC3(C(F)(F)F)CC3)c3ccc(Cl)c(-n4ncnc4C(F)F)c3)C2=O)cc1 [Compound 205] was tested. Which pEC50 did it give?
**A.** 7.70

**Q.** Cn1ccc(-c2ccc([C@@]3(CC(C)(C)C)NC(=N)N([C@H](COC(=O)NC4(C(F)(F)F)CC4)c4ccc(Cl)c(-n5ncnc5C(F)F)c4)C3=O)cc2)n1 [Compound 206] was tested. Which pEC50 did it give?
**A.** 8.17

**Q.** With CC(C)(C)C[C@]1(c2ccc(-c3cnn(C4CC4)c3)cc2)NC(=N)N([C@H](COC(=O)NC2(C(F)(F)F)CC2)c2ccc(Cl)c(-n3ncnc3C(F)F)c2)C1=O [Compound 207] as the molecule, how does the pEC50 read?
**A.** 7.86

**Q.** CC(C)(C)C[C@]1(c2ccc(-c3cnn(C4CC4)c3)cc2F)NC(=N)N([C@H](COC(=O)NC2(C(F)(F)F)CC2)c2ccc(Cl)c(-n3ncnc3C(F)F)c2)C1=O [Compound 209] was tested. Which pEC50 did it give?
**A.** 7.83

**Q.** With Cn1ccc(-c2ccc([C@@]3(CC(C)(C)C)NC(=N)N([C@H](COC(=O)NC4(C(F)(F)F)CC4)c4ccc(Cl)c(-n5ncnc5C(F)F)c4)C3=O)c(F)c2)n1 [Compound 210] as the molecule, how does the pEC50 read?
**A.** 8.16

**Q.** With CC(C)(C)C[C@]1(c2ccc(-c3cnn(C(F)F)c3)cc2)NC(=N)N([C@H](COC(=O)NC2CC2(F)F)c2ccc(Cl)c(-n3ncnc3C(F)F)c2)C1=O (some centres unmarked) [Compound 211] as the molecule, how does the pEC50 read?
**A.** 7.97

**Q.** How did the pEC50 turn out when CC(C)(C)C[C@]1(c2ccc(-c3ccn(C4CC4)n3)cc2F)NC(=N)N([C@H](COC(=O)NC2(C(F)(F)F)CC2)c2ccc(Cl)c(-n3ncnc3C(F)F)c2)C1=O [Compound 215] was run?
**A.** 7.73

**Q.** How did the pEC50 turn out when Cc1cc(-c2ccc([C@@]3(CC(C)(C)C)NC(=N)N([C@H](COC(=O)NC4(C(F)(F)F)CC4)c4ccc(Cl)c(-n5ncnc5C(F)F)c4)C3=O)cc2)on1 [Compound 216] was run?
**A.** 8.01

**Q.** CC(C)(C)C[C@]1(c2ccc(-c3cnn(C(F)F)c3)cc2)NC(=N)N([C@H](COC(=O)NCC(F)F)c2ccc(Cl)c(-n3ncnc3C(F)F)c2)C1=O [Compound 219] was tested. Which pEC50 did it give?
**A.** 8.06

**Q.** How did the pEC50 turn out when CC(C)(C)C[C@]1(c2ccc(-c3cnn(C4CC4)c3)cc2)NC(=N)N([C@H](COC(=O)NCC(F)(F)F)c2ccc(Cl)c(-n3ncnc3C(F)F)c2)C1=O [Compound 221] was run?
**A.** 7.81

**Q.** With CC(C)(C)C[C@]1(c2ccc(-c3cnn(C4CC4)n3)c(F)c2)NC(=N)N([C@H](COC(=O)NC2(C(F)(F)F)CC2)c2ccc(Cl)c(-n3ncnc3C(F)F)c2)C1=O [Compound 225] as the molecule, how does the pEC50 read?
**A.** 7.76

same assay, conditions: Human immunodeficiency virus 1, IIIB, MT4, read-out: MT4 EC50 (nM)

**Q.** How did the EC50 turn out when CC(C)(C[C@]1(c2ccc(-c3cnn(C4CC4)n3)cc2)NC(=N)N([C@H](COC(=O)NCC(F)(F)F)c2ccc(Cl)c(-c3ncnn3C(F)F)c2)C1=O)C(F)(F)F [Compound 156] was run?
**A.** 11.1 nM

**Q.** Which EC50 does the source give for CC(C)(C)C[C@]1(c2ccc(-c3cnn(C(F)F)c3)cc2)NC(=N)N([C@H](COC(=O)Nc2ccccc2)c2ccc(Cl)c(-n3ncnc3C(F)F)c2)C1=O [Compound 180] here?
**A.** 23.7 nM

same assay, conditions: MT-4 cells, HIV-1; read-out: MT4 EC50

**Q.** With CC(C)(C)C[C@]1(c2ccc(-c3ccnn3C(F)F)cc2)NC(=N)N([C@H](COC(=O)NC2(C(F)(F)F)CC2)c2ccc(Cl)c(-n3ncnc3C(F)F)c2)C1=O [Compound 213] as the molecule, how does the pEC50 read?
**A.** 7.59

— US10774053B2, “HIV protease inhibitors” (Gilead Sciences, Inc., priority 2017, dated 2020)
